Tests used:
Format in all cases: cell-based
[1] = tested on: HeLa-APL; assay: SRB colorimetric cell growth inhibition assay, HeLa-APL (aplidine resistant); conditions: Homo sapiens
Excerpt: (§1) The finality of these assays is to interrupt the growth of an “in vitro” tumor cell culture by means a continued exhibition of the cells to the sample to be testing.
(§2) A colorimetric type of assay, using sulforhodamine B (SRB) reaction has been adapted for a quantitative measurement of cell growth and viability (following the technique described by P. A. Skehan, et al., J. Natl. Cancer Inst. 1990, 82, 1107-1112).
(§3) This form of assay employs 96 well cell culture microplates of 9 mm diameter (T. Mosmann et al., J. of Immunological Methods 1983, 65, 55-63; G. T. Faircloth et al., J. of Tissue and Culture Methods 1988, 11, 201-205).
(§4) Most of the cell lines are obtained from American Type Culture Collection (ATCC) derived from different human cancer types.
(§5) The values for mean +/− SD of data from triplicate wells are calculated. Some parameters for cellular responses can be calculated: GI=growth inhibition, TGI=total growth inhibition (cytostatic effect) and LC=cell killing (cytotoxic effect).

[2] = tested on: PANC-1; assay: SRB colorimetric cell growth inhibition assay, PANC-1; conditions: Homo sapiens
Excerpt: as §1, §2, §3, §4, §5

[3] = tested on: DU-145; assay: SRB colorimetric cell growth inhibition assay, DU-145; conditions: Homo sapiens
Excerpt: as §1, §2, §3, §4, §5

[4] = tested on: SK-MEL-28; assay: SRB colorimetric cell growth inhibition assay, SK-MEL-28; conditions: Homo sapiens, SK-MEL-28, MEL-28
Excerpt: as §1, §2, §3, §4, §5

[5] = tested on: LNCaP; assay: SRB colorimetric cell growth inhibition assay, LNCaP; conditions: Homo sapiens, LNCaP, LN-caP
Excerpt: as §1, §2, §3, §4, §5

[6] = tested on: IGROV-ET; assay: SRB colorimetric cell growth inhibition assay, IGROV-ET (ET-743 resistant); conditions: Homo sapiens, IGROV-ET
Excerpt: as §1, §2, §3, §4, §5

[7] = tested on: HT-29; assay: SRB colorimetric cell growth inhibition assay, HT-29; conditions: Homo sapiens
Excerpt: as §1, §2, §3, §4, §5

[8] = tested on: LoVo; assay: SRB colorimetric cell growth inhibition assay, LoVo; conditions: Homo sapiens
Excerpt: as §1, §2, §3, §4, §5

[9] = tested on: HeLa; assay: SRB colorimetric cell growth inhibition assay, HeLa; conditions: Homo sapiens, HeLa
Excerpt: as §1, §2, §3, §4, §5

[10] = tested on: LoVo-Dox; assay: SRB colorimetric cell growth inhibition assay, LoVo-Dox (MDR); conditions: Homo sapiens, LOVO-DOX
Excerpt: as §1, §2, §3, §4, §5

[11] = tested on: SK-BR-3; assay: SRB colorimetric cell growth inhibition assay, SK-BR-3; conditions: Homo sapiens
Excerpt: as §1, §2, §3, §4, §5

[12] = tested on: A-549; assay: SRB colorimetric cell growth inhibition assay, A-549; conditions: Homo sapiens, A549, A-549
Excerpt: as §1, §2, §3, §4, §5

[13] = tested on: IGROV; assay: SRB colorimetric cell growth inhibition assay, IGROV; conditions: Homo sapiens, IGROV
Excerpt: as §1, §2, §3, §4, §5

CC[C@H](C)[C@H](NC(=O)OC(C)(C)C)C(=O)Oc1ccc(-c2c3c4cc(OC)c(OC(=O)[C@@H](NC(=O)OC(C)(C)C)[C@@H](C)CC)cc4oc(=O)c3n3ccc4cc(OC(=O)[C@@H](NC(=O)OC(C)(C)C)[C@@H](C)CC)c(OC)cc4c23)cc1OC [Compound 208]
GI50 ([1]; read-out: GI50 HELA-APL): 0.154 µM | CC50 ([1]; read-out: LC50 HELA-APL): 1.14 µM | IC (TGI) ([1]; read-out: TGI HELA-APL): 0.385 µM | CC50 ([2]; PANC-1, PANC-1, cell killing (cytotoxic effect), read-out: LC50 PANC-1): 8.78 µM | IC (TGI) ([2]; PANC-1, PANC-1, total growth inhibition (cytostatic effect), read-out: TGI PANC-1): 8.78 µM | GI50 ([2]; PANC-1, GI=growth inhibition, read-out: GI50 PANC-1): 5.92 µM | CC50 ([3]; DU-145, DU-145, cell killing (cytotoxic effect), read-out: LC50 DU-145): 8.78 µM | GI50 ([3]; DU-145, GI=growth inhibition, read-out: GI50 DU-145): 8.78 µM | IC (TGI) ([3]; DU-145, total growth inhibition (cytostatic effect), read-out: TGI DU-145): 8.78 µM | GI50 ([4]; GI=growth inhibition, read-out: GI50 MEL-28): 8.78 µM | CC50 ([4]; cell killing (cytotoxic effect), read-out: LC50 MEL-28): 8.78 µM | IC (TGI) ([4]; total growth inhibition (cytostatic effect), read-out: TGI MEL-28): 8.78 µM | GI50 ([5]; GI=growth inhibition, read-out: GI50 LN-caP): 1.46 µM | CC50 ([5]; cell killing (cytotoxic effect), read-out: LC50 LN-caP): 5.83 µM | IC (TGI) ([5]; total growth inhibition (cytostatic effect), read-out: TGI LN-caP): 2.91 µM | GI50 ([6]; GI=growth inhibition, read-out: GI50 IGROV-ET): 8.78 µM | CC50 ([6]; cell killing (cytotoxic effect), read-out: LC50 IGROV-ET): 8.78 µM | IC (TGI) ([6]; total growth inhibition (cytostatic effect), read-out: TGI IGROV-ET): 8.78 µM | CC50 ([7]; HT-29, HT-29, cell killing (cytotoxic effect), read-out: LC50 HT-29): 8.78 µM | GI50 ([7]; HT-29, GI=growth inhibition, read-out: GI50 HT-29): 8.78 µM | IC (TGI) ([7]; HT-29, total growth inhibition (cytostatic effect), read-out: TGI HT-29): 8.78 µM | CC50 ([8]; LoVo, cell killing (cytotoxic effect), read-out: LC50 LOVO): 8.78 µM | GI50 ([8]; LOVO, GI=growth inhibition, read-out: GI50 LOVO): 8.78 µM | IC (TGI) ([8]; LOVO, total growth inhibition (cytostatic effect), read-out: TGI LOVO): 8.78 µM | GI50 ([9]; read-out: GI50 HELA): 0.208 µM | CC50 ([9]; read-out: LC50 HELA): 2.31 µM | IC (TGI) ([9]; read-out: TGI HELA): 0.618 µM | GI50 ([10]; GI=growth inhibition, read-out: GI50 LOVO-DOX): 8.78 µM | CC50 ([10]; cell killing (cytotoxic effect), read-out: LC50 LOVO-DOX): 8.78 µM | IC (TGI) ([10]; total growth inhibition (cytostatic effect), read-out: TGI LOVO-DOX): 8.78 µM | CC50 ([11]; SK-BR-3, SK-BR-3, cell killing (cytotoxic effect), read-out: LC50 SK-BR-3): 8.78 µM | GI50 ([11]; SK-BR-3, GI=growth inhibition, read-out: GI50 SK-BR-3): 5.01 µM | IC (TGI) ([11]; SK-BR-3, total growth inhibition (cytostatic effect), read-out: TGI SK-BR-3): 7.97 µM | GI50 ([12]; GI=growth inhibition, read-out: GI50 A-549): 8.78 µM | CC50 ([12]; cell killing (cytotoxic effect), read-out: LC50 A-549): 8.78 µM | IC (TGI) ([12]; total growth inhibition (cytostatic effect), read-out: TGI A-549): 8.78 µM | CC50 ([13]; cell killing (cytotoxic effect), read-out: LC50 IGROV): 8.78 µM | GI50 ([13]; GI=growth inhibition, read-out: GI50 IGROV): 8.78 µM | IC (TGI) ([13]; total growth inhibition (cytostatic effect), read-out: TGI IGROV): 8.78 µM
